Experimental data published in patent US6699494B2, “Pharmaceutical composition and method for treating premature labor” (Columbia Laboratories, Inc., priority 1997, dated 2004).
Where two headings read alike, the source gives them in different places.

Assays:
[1] = Single dose pharmacokinetic study of transvaginal terbutaline gel, serum terbutaline by GC-MS; assay type: in vivo, human
Protocol: The objective of this study was to assess the pharmacokinetic parameters of the terbutaline and polycarbophil composition following a single dose regimen comparing progressively increasing concentrations. This open-label study was conducted in ten healthy female volunteers with a mean age of 25±SD (Standard Deviation) of 3.93 years. This study consisted of a 30 day screening period and a 24 hour treatment period with a follow-up evaluation conducted two days after administration of the final dose. The drug was administered transvaginally at 9:00 a.m. A wash out period of at least one week as observed between each of the four doses of the drug. All subjects were given an estro-progestative pill, to ensure that all study participants were at the same point in their menstrual cycle. They began dosing on day 7 to 10 of their pill intake for the single dose study. Serum terbutaline concentrations were obtained from blood samples collected predosing on the mornings of treatment, at frequent intervals during the initial 24 hours post dose (0.5, 1, 1.5, 2, 4, 6, 8, 12, 24 hours) and at 48 hours post dose. Serum terbutaline concentrations were determined using gas chromatography-mass spectrometry. Pharmacokinetic parameters were computed using concentration-time data for each subject following intake of the last dose of investigational drug on the morning of study day 6. The following pharmacokinetic parameters were computed: area under the drug concentration-time curve from time 0 to time t (AUC0-t), where t is the time of the last measurable concentration; peak drug concentration (Cmax); time to peak drug concentration (tmax); steady state drug concentration (CSS); and, elimination half-life (t½).
All ten subjects completed the study for the 0.1%, 0.2%, and 0.4% (w/w) concentrations. For each dose, the onset of serum terbutaline concentrations occurred within 1 to 2 hours. (See FIG. 1 and Table 2 showing terbutaline concentrations for each tested dose). […] Concentrations were still detectable for up to 48 hours (mean±SEM (Standard Error of the Mean) of 113.11±32.25 pg/mL for the 0.4% concentration).
(§1) Both the single and multiple dose studies discussed in the preceding examples also evaluated the 0.8% w/w concentration. The average age±SD for the single and multiple dose studies at the 0.8 dose were 26±3.42 and 26±4.12, respectively. The pharmacokinetic parameters from the study follow in Tables 4 and 5.

[2] = Human ex vivo uterine perfusion model, vagina to uterus transfer of tritiated terbutaline; assay type: in vitro ADME
Protocol: This model verifies the preferential direct delivery of terbutaline from the vagina to the uterus. In this study, uteri obtained from women undergoing hysterectomies for benign diseases were immediately connected to an organ perfusion system in which temperature, CO2 concentration, uterine artery pressure and flow were maintained constant. A perfusion model was opened without recirculation. The direct transfer of terbutaline from the vagina to the uterus was analyzed by applying a mixture of tritiated [^3H] terbutaline and unlabeled terbutaline to the cuff of vaginal tissue remaining attached to the cervix after the hysterectomy. Tritiated terbutaline was only used for autoradiography analysis of sections of uterine tissue. The experiments were interrupted at predetermined time intervals after vaginal applications […]. At the end of the perfusion period, ^3H and ^14C radioactivity was measured in endometrial and myometrial samples. Tritiated water and ^14C dextran helped to determine that the extend of non-specific vagina to uterus transport (due to leaks of the system) was less than 10%. The myometrial extraction of terbutaline and its corresponding venous outflow during the 12 hour uterine perfusions are shown in FIG. 3 below. The ^3H terbutaline started to be recovered in the venous effluent uterine during the first 3 hours. Terbutaline flow was maximal at the 6th-9th hour and then decreased for up to 48 hours of perfusion. Terbutaline flow in the venous effluent uterine is the reflection of terbutaline exiting from the organ. Accumulation of tritiated terbutaline was maximal in the myometrium at 12 hours of perfusion. (Mean±SD of 18.40±3.40 ng/100 mg of tissue) and decreased slowly. Significant accumulation of ^3H terbutaline still remained at 48 hours of perfusion, with 20% of the original concentration present.

[3] = Side effects at the 0.8% dose in the single and multiple dose studies; assay type: in vivo, human; settings: transvaginal gel
Description: as §1
A number of patients in the study (40%), however, experienced side effects such as tachycardia at this dose. […] This dose can be a method of practicing the invention, but is certainly not the most preferred embodiment.

[4] = oral administration, cited from earlier work
[5] = cited from earlier work
[6] = terbutaline inhaler, dysmenorrhea; cited from earlier work
[7] = female, human, 0.1 % (w/w), 0.1% gel, serum, mean ± SEM, n=10
[8] = female, human, 0.2 % (w/w), 0.2% gel, serum, mean ± SEM, n=10
[9] = female, human, 0.4 % (w/w), 0.4% gel, serum, mean ± SEM, n=10
[10] = female, human, 0.8 % w/w, 0.8% gel, serum, mean ± SEM, n=8
[11] = ex vivo perfused uterus, vaginal application

## CC(C)(C)NCC(O)c1cc(O)cc(O)c1 (stereo not shown) [Terbutaline, 5-[2-[(1,1-dimethylethyl)amino]-1-hydroxyethyl]-1,3-benzenediol]
[1]
  time for which serum concentrations were still detectable: up to 48 hours
[1]; 0.1% gel, serum, mean ± SEM, n=10
  Css: 0.056 ± 0.041 ng/mL
[1]; 0.2% gel, serum, mean ± SEM, n=10
  Css: 0.191 ± 0.108 ng/mL
[1]; 0.8% gel, serum, mean ± SEM, n=8
  Css: 0.579 ± 0.3 ng/mL
[1]; [7]
  Cmax: 0.117 ± 0.059 ng/mL
  Tmax: 13 ± 6 h
[1]; female, human, 0.1 % (w/w), 0.1% gel, serum, mean ± SEM, n=10, read-out: AUC0 to 48
  AUC(0-t): 2.28 ± 1.84 ng·h/mL
[1]; female, human, 0.1 % (w/w), 0.1% gel, serum, mean ± SEM, n=10, read-out: t½ (converted)
  half-life: 18 ± 12 h
[1]; [8]
  Cmax: 0.297 ± 0.17 ng/mL
  Tmax: 13 ± 6 h
[1]; female, human, 0.2 % (w/w), 0.2% gel, serum, mean ± SEM, n=10, read-out: AUC0 to 48
  AUC(0-t): 8.01 ± 4.7 ng·h/mL
[1]; female, human, 0.2 % (w/w), 0.2% gel, serum, mean ± SEM, n=10, read-out: t½ (converted)
  half-life: 29 ± 15 h
[1]; [9]
  Cmax: 0.479 ± 0.149 ng/mL
  Tmax: 14 ± 7 h
[1]; female, human, 0.4 % (w/w), 0.4% gel, serum, mean ± SEM, n=10, read-out: AUC0 to 48
  AUC(0-t): 11.9 ± 5.28 ng·h/mL
[1]; female, human, 0.4 % (w/w), 0.4% gel, serum, mean ± SEM, n=10, read-out: t½ (converted)
  half-life: 24 ± 16 h
[1]; female, human, 0.8 % w/w gel, 0.8% gel, serum, mean ± SEM, n=8, read-out: AUC0 to 48
  AUC(0-t): 23.2 ± 13.5 ng·h/mL
[1]; [10]
  Cmax: 0.787 ± 0.434 ng/mL
  Tmax: 10 ± 3 h
[1]; female, human, 0.8 % w/w, 0.8% gel, serum, mean ± SEM, n=8, read-out: t½ (converted)
  half-life: 20 ± 7 h
[1]; female, human, serum, according to the dose administered (0.1%-0.4%), read-out: Mean t½ estimates
  half-life: 18 to 29 h
[1]; female, human, serum, other: transvaginal, 0.4 % (w/w), 0.4% concentration, mean±SEM
  concentration at 48 h: 0.113 ± 0.0323 ng/mL
[1]; for each dose (0.1%, 0.2%, 0.4%)
  onset of serum terbutaline concentrations: 1 to 2 h
[2]; after a single vaginal application
  time terbutaline lasted in the myometrium: over 48 hours
[2]; at 12 hours of perfusion, Mean±SD
  accumulation of tritiated terbutaline in the myometrium: 18.40±3.40 ng/100 mg of tissue
[2]; at 48 hours of perfusion
  3H terbutaline remaining, share of the original concentration: 20%
[2]; [11]
  time of maximal accumulation of tritiated terbutaline in the myometrium: 12 h
  time within which 3H terbutaline started to be recovered in the venous effluent: ≤ 3 h
[3]
  patients who experienced side effects such as tachycardia: 40%
[4]; extensive first-pass sulphation
  Bioavailability: 15 and 20%
[4]
  further decrease of bioavailability by concomitant food intake: 30%
[5]; prior art
  known serum levels for toxicity: 3000 pg/mL
[5]; reported in prior art
  known serum threshold susceptible to trigger systemic adverse events such as tachycardia and tremor: 3,000-3,500 pg/mL
[6]
  duration of the effect of each spray: ≥ 1 h
